Results: PMC5175340, “eIF2β is critical for eIF5-mediated GDP-dissociation inhibitor activity and translational control” (Nucleic Acids Research, 2016)

Experiments:
sif285-1 GCN2 cells = assay: Growth on SD ±3AT media; type: cell-based, yeast; conditions: sif285-1 cells transformed with WT GCN2 plasmid
Method: Strains used and generated in this work are derivatives of S288c and are described in Supplementary Table S1. Cell growth was performed at 30°C in standard yeast rich (YPD), synthetic defined minimal (SD) or synthetic complete (SC) media lacking nutrients for plasmid selection. All media have 2% glucose as a carbon source ([25]). 3-Amino-1,2,4-triazole (3AT) (Fluka) was added where indicated. For serial dilution growth assays, cells were grown to A600 = 0.6, diluted to 0.1 and 2–3 μl of 10-fold dilutions were spotted on the agar surface. Plasmid shuffling to select for loss of URA3 plasmids employed 5-fluoro-orotic acid (5-FOA; Sigma-Aldrich), while loss of LEU2 plasmids relied on passive loss during unselected growth and subsequent screening. Mating type switching employed HO plasmid pAV1621 (pHO1.5) followed by 5-FOA, sporulation, tetrad dissection and mating type testing ([25]). gcd6Δ sui3Δ double deletion strains (GP7216-19) were made by polymerase chain reaction (PCR) amplifying gcd6Δ::KanMX cassette from a BY4743 gcd6Δ::KanMX/GCD6 diploid strain (GP4146) and transforming the DNA fragment into sui3Δ gcn2Δ [SUI3-Flag TRP1] [GCD6 URA3] strains to generate G418 resistant cells unable to lose the covering GCD6 plasmid upon 5-FOA selection.

HIS4-LacZ [1] = assay: β-galactosidase assay of HIS4-LacZ fusion; type: cell-based, yeast; conditions: sif285-1 cells bearing GCD6, 3AT treatment
Method: Measurement of β-galactosidase levels from a HIS4-LacZ fusion genomically-integrated at ura3-52 was performed exactly as described ([36]) using whole protein extracts from cells grown in SC medium lacking histidine and uracil or following addition of 10 mM 3AT for 6 h. Units are nmole o-nitrophenyl-β-D-galacto-pyranoside cleaved/min/μg total protein ± SE, n = 3.

HIS4-LacZ [2] = test system: HIS4-LacZ; set-up: method as in PMID 16153175; conditions: by GAAC via increased GCN4 translation in the presence of 3AT; cited from earlier work
[3] = biological target: T1, eIF2 (β E189K), eIF2βE189K (Saccharomyces cerevisiae, UniProt P09064+P32481, E189K); assay: Steady-state fluorescence titration of 100 nM BODIPY-FL nucleotide with increasing apo-eIF2 (490 nm excitation, 509 nm emission) in 30 mM HEPES, 100 mM KCl, 10 mM MgCl2, pH 7.4, at room temperature, fitted to a single-site binding model.
T1 construct: purified apo-eIF2 heterotrimer; V5-sui3-E189K (N-terminal V5 tag on eIF2β), SUI2, His6-GCD11; nucleotide-free after EDTA dialysis
Method: (§1) To assay nucleotide affinity, fluorescence intensity of 100 nM of BODIPY-FL-GDP or BODIPY-FL-GTP (Thermo Fisher Scientific) in 180 μl of assay buffer (30 mM HEPES, 100 mM KCl, 10 mM MgCl2, pH 7.4) was measured using a Fluoromax-4 spectrophotometer (Horiba) (490 nm excitation, 509 nm emission). Yeast Met–tRNAi was assayed in a similar manner using 20 nM BOP-N-Met–tRNAi (tRNA probes) but with the addition of 1 mM GTP. Change in fluorescence intensity was measured upon addition of increasing amounts of apo–eIF2, incubating for 5 min at room temperature each time. Each measurement was blanked against a control without nucleotide to account for any affect of eIF2 and data were corrected for dilution effects caused by volume addition and normalized to starting values before being fitted to a single site binding model: y = 1 + [(ΔFmax - 1)*(x/(x + Kd))].
(§2) eIF2 was purified from yeast strains GP7145 and GP7146 expressing V5-sui3-E189K or the V5-SUI3 derivatives of eIF2β by sequential nickel affinity, HiTrap Heparin and HiTrap Q sepharose chromatography as described ([14]). To obtain apo–eIF2 free from nucleotide, eIF2 was dialysed with EDTA (30 mM HEPES, 100 mM KCl, 1 mM DTT, 1 mM EDTA, 10% glycerol, pH 7.4) then with magnesium (30 mM HEPES, 100 mM KCl, 1 mM DTT, 0.1 mM MgCl2, 10% glycerol, pH 7.4).
(§3) Figure 4. […] (A) Affinity (Kd) of GDP, GTP and Met–tRNAi to purified WT and mutant (β E189K) apo–eIF2 complexes measured by monitoring the fluorescence intensity of 100 nM BODIPY-FL-GDP (left), 100 nM BODIPY-FL-GTP (middle) or 20 nM BOP-N-Met–tRNAi with 1 mM GTP (right). […] K1/2 and Kmax values were determined from curve fitting y = [(Kmax × x)/(K1/2 + x)] + c. (C) Western blotting of IP of Flag-eIF2β, Flag-E189K and an untagged control from cells showing its co-association with known binding proteins. Quantification of at least three repeats using Li-Cor fluorescent secondary antibodies ±SE. […] Tif5 is indicated with an arrow, ‘♦’ marks a non-specific band.

eIF2 WT = biological target: T2, eIF2 WT (Saccharomyces cerevisiae, UniProt P32481); assay: as above
T2 construct: gene GCD11; purified apo-eIF2 heterotrimer; V5-SUI3 (N-terminal V5 tag on eIF2β), SUI2, His6-GCD11; nucleotide-free after EDTA dialysis
Method: as §1, §2, §3

Met–tRNAi = assay: Steady state fluorescence, BOP-N-Met-tRNAi binding to apo-eIF2; set-up: species or system Yeast; conditions: 20 nM BOP-N-Met-tRNAi with 1 mM GTP, purified apo-eIF2
Method: as §1

[4] = GDP dissociation assay, intrinsic BODIPY-GDP off-rate; type: binding; conditions: 20 nM eIF2•BODIPY-GDP, 1 mM unlabelled GDP, 0 nM eIF2B
Method: (§4) Fluorescent eIF2•BODIPY-GDP binary complex was formed by incubating apo–eIF2 with a 2× excess of BODIPY-FL-GDP (Thermo Fisher Scientific) for 20 min at room temperature. Excess nucleotide was removed by passing through a G-50 sephadex column (GE Healthcare). Labelling efficiency was calculated to exceed 90%. […] K1/2 and Kmax values were determined from curve fitting y = [(Kmax × x)/(K1/2 + x)] + c.

eIF5 = eIF5 GDI activity, BODIPY-GDP release with GST-eIF5; type: biochemical, yeast; conditions: eIF2•BODIPY-GDP 20 nM, purified eIF5 0–80 nM
Method: as §4
We therefore decided to assess eIF5 GDI activity directly. We monitored eIF5 GDI activity by incubating eIF2•BODIPY-GDP (20 nM) with purified eIF5 (0–80 nM) and recorded the fluorescence change upon dissociation of BODIPY-GDP from eIF2.

[5] = biological target: eIF2^βE189K (V5-eIF2β-E189K, eIF2α, His6-eIF2γ), purified (S. cerevisiae) (UniProt P09064)
eIF2^βE189K (V5-eIF2β-E189K, eIF2α, His6-eIF2γ), purified (S. cerevisiae), sequence (P09064 whole entry E189K, chain 1 of 3): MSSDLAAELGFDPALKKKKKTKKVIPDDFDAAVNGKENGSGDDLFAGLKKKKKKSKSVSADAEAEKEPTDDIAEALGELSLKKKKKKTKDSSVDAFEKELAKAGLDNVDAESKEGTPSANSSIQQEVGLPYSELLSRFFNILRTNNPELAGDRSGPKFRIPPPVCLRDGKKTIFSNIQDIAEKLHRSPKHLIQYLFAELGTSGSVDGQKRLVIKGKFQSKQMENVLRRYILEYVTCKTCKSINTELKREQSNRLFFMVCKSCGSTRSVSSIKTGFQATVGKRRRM
eIF2^βE189K (V5-eIF2β-E189K, eIF2α, His6-eIF2γ), purified (S. cerevisiae), sequence (chain, as listed by the source E189K E189K, chain 2 of 3): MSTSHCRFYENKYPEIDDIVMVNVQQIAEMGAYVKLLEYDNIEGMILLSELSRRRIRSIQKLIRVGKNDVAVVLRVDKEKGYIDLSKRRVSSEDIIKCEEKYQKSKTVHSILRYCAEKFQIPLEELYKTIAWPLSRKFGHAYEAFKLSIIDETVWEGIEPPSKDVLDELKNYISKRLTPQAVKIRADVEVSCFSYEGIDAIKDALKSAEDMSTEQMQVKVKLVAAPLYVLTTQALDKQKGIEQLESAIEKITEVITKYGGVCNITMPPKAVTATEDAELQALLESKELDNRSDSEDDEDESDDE
eIF2^βE189K (V5-eIF2β-E189K, eIF2α, His6-eIF2γ), purified (S. cerevisiae), sequence (chain, as listed by the source E189K E189K, chain 3 of 3): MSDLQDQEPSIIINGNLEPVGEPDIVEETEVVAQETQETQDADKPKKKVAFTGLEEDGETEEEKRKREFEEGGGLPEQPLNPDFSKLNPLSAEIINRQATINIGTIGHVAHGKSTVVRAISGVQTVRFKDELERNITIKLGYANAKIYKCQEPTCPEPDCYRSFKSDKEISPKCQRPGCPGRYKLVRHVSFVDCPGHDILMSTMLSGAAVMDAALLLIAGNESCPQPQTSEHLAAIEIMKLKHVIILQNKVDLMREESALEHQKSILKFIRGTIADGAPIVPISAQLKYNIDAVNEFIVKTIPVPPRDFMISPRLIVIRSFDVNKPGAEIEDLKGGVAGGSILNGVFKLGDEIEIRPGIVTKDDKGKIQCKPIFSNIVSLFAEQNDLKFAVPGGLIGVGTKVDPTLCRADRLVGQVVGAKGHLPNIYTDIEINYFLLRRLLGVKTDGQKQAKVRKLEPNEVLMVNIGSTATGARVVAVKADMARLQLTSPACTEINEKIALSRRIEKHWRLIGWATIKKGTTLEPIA

T1 sequence (P09064 whole entry E189K): as the sequence (P09064 whole entry E189K, chain 1 of 3) above
T1 sequence (P32481 whole entry): as the sequence (chain, as listed by the source E189K E189K, chain 3 of 3) above
T1 sequence (P20459 whole entry, stated change not applied, further chain): as the sequence (chain, as listed by the source E189K E189K, chain 2 of 3) above
T2 sequence (P32481 whole entry): as the sequence (chain, as listed by the source E189K E189K, chain 3 of 3) above
T2 sequence (P20459 whole entry partner): as the sequence (chain, as listed by the source E189K E189K, chain 2 of 3) above
T2 sequence (P09064 whole entry partner): as the sequence (P09064 whole entry E189K, chain 1 of 3) above, with K189E counted along it
eIF5, sequence (P38431 whole entry): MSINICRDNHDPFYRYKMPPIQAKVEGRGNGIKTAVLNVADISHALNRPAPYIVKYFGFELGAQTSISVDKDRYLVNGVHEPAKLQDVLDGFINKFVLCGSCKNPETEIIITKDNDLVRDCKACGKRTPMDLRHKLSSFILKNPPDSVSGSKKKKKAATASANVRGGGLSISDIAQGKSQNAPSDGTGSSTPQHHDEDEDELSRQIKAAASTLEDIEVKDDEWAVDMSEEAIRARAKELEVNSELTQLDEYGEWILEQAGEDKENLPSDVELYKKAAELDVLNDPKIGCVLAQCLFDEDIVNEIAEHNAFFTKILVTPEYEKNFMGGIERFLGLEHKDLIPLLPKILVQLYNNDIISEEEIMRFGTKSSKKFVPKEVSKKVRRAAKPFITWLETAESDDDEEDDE
eIF5, sequence (P32481 whole entry, further chain): as the sequence (chain, as listed by the source E189K E189K, chain 3 of 3) above
eIF5, sequence (P20459 whole entry, further chain): as the sequence (chain, as listed by the source E189K E189K, chain 2 of 3) above

For `Nc1nc[nH]n1` [3AT, 3-Amino-1,2,4-triazole], the cell growth (sif285-1 GCN2 cells) is listed as “impaired”, the HIS4-LacZ expression (HIS4-LacZ [1]) is listed as “not derepressed” and the HIS4 transcription derepression (HIS4-LacZ [2]) is listed as roughly 2 fold.

In the case of `Cc1cc(C)n2c1C=C1C=CC(CCC(=O)NCCNC(=O)OC3C(COP(=O)(O)OP(=O)(O)O)OC(n4cnc5c(=O)[nH]c(N)nc54)C3O)=[N+]1[B-]2(F)F` (centres unmarked) [BODIPY-FL-GDP, guanosine 5'-diphosphate, BODIPY FL 2'-(or-3')-O-(N-(2-aminoethyl)urethane)], the Kd [3] is reported as 19.3 nM and the Kd (eIF2 WT) is reported as 19.1 nM.

`Cc1cc(C)n2c1C=C1C=CC(CCC(=O)NCCNC(=O)OC3C(COP(=O)(O)OP(=O)(O)OP(=O)(O)O)OC(n4cnc5c(=O)[nH]c(N)nc54)C3O)=[N+]1[B-]2(F)F` (centres unmarked) [BODIPY-FL-GTP, guanosine 5'-triphosphate, BODIPY FL 2'-(or-3')-O-(N-(2-aminoethyl)urethane)] gave a Kd [3] of 32 nM and a Kd (eIF2 WT) of 35.2 nM.

With “eIF2 WT: Wild-type yeast translation initiation factor eIF2 complex purified from an overexpression yeast strain (V5-SUI3)” the Kd (Met–tRNAi) was 2.8 nM, the “Koff BODIPY-GDP” value [4] was 0.00487 ± 0.000417 s⁻¹ and the “stabilization of GDP binding by eIF5 (GDI activity)” value (eIF5) was “stabilized by eIF5”.

Molecule “eIF2B, P14741 1-305; P32502 1-381; P09032 1-578; P12754 1-651; P32501 1-712” has a K1/2 of eIF2B for GEF-promoted release of BODIPY-FL-GDP from purified eIF2•BODIPY-GDP (20 nM), room temperature [5] of 92.6 nM.
